Assay type in all cases: in vitro ADME
What all share (conditions): 1 μg/mL, 37° C.

Data set [1] is described as follows: Conversion of prodrug to drug in plasma (dog). The method, then:
(§1) The conversion of N-oxide prodrugs to the corresponding parent compounds is due to a reduction mechanism. […] The presence of an oxidant in the work-up solution should help preventing the reduction of the N-oxides.
(§2) Conversion in plasma: 10 μLs of a 100 μg/mL DMSO solution of the pro-drug were added to 1 mL plasma to reach a final concentration of 1 μg/mL. The incubation was performed at 37° C. and 8 aliquots were taken at different time points over 30 min. These aliquots were treated with 3 volumes of cold MeOH containing H2O2 (final concentration 10% v/v) and centrifuged at 3500 g for 20 min at 10° C. The supernatant was directly used to determine the drug levels by LC-MS-MS (HPLC chromatography on reversed phase column X-Terra MS C18 […] 2.1×30 mm Waters at 40° C., using a polarity gradient MeOH/Form.Ac.
(§3) 1% 20/80/MeOH; run time; 3.0 min; inj. Vol.: 10 μL; Flow: […] and MS/MS detection on a PE Sciex API-2000 MS/MS spectrometer; ion source: Turbospray; ionisation mode: ESP+).
(§4) Sample stability (plasma and blood): The final matrix were first prepared (plasma or blood treated with 3 volumes of cold MeOH containing H2O2—10% v/v—and centrifuged at 3500 g for 20 min at 10° C.) and then incubated at 37° C. into two tubes; the pro-drug or the drug were then incubated and finally their concentration determined by LC-MS-MS as described above.

Data set [2] is described as follows: Conversion of prodrug to drug in plasma (human). As for the experimental part:
as §1, §2, §3, §4

Data set [3] is described as follows: Conversion of prodrug to drug in plasma (rat). As for the experimental part: as §1, §2, §3, §4

With `Cc1ccccc1-c1cc([N+]2([O-])CCOCC2)ncc1N(C)C(=O)C(C)(C)c1cc(C(F)(F)F)cc(C(F)(F)F)c1` [Example 1, 2-(3,5-Bis-trifluoromethyl-phenyl)-N-methyl-N-[6-(4-oxy-morpholin-4-yl)-4-o-tolyl-pyridin-3-yl]-isobutyramide], the “t½ conversion prodrug to drug, Dog plasma” value in data set [1] stood at 18 h. The “t½ conversion prodrug to drug, Human plasma” value in data set [2] came to 8 h. Further, the “t½ conversion prodrug to drug, Rat plasma” value in data set [3] worked out at 4 h.
For `CN(C(=O)C(C)(C)c1cc(C(F)(F)F)cc(C(F)(F)F)c1)c1cnc([N+]2([O-])CCOCC2)cc1-c1ccccc1Cl` [Example 2, 2-(3,5-Bis-trifluoromethyl-phenyl)-N-[4-(2-chloro-phenyl)-6-(4-oxy-morpholin-4-yl)-pyridin-3-yl]-N-methyl-isobutyramide], the “t½ conversion prodrug to drug, Dog plasma” value in data set [1] is 18 h. Further, in data set [2], the “t½ conversion prodrug to drug, Human plasma” value was 12 h. The “t½ conversion prodrug to drug, Rat plasma” value in data set [3] was found to be 5 h.
For `Cc1ccccc1-c1cc([N+]2([O-])CCOCC2)ncc1C(=O)N(C)Cc1cc(C(F)(F)F)cc(C(F)(F)F)c1.O` [Example 16, N-(3,5-Bis-trifluoromethyl-benzyl)-N-methyl-6-(4-oxy-morpholin-4-yl)-4-o-tolyl-nicotinamide monohydrate], in data set [1], the “t½ conversion prodrug to drug, Dog plasma” value was determined as 16 h. For the same compound, the “t½ conversion prodrug to drug, Human plasma” value in data set [2] is 6 h. For the same compound, in data set [3], the “t½ conversion prodrug to drug, Rat plasma” value amounted to 2 h.

These data come from US6806370B2, “NK-1 receptor active amine oxide prodrugs” (Hoffmann-La Roche Inc., priority 2000, dated 2004).
